Experimental data from publication PMC7738880, “Identification of novel CD44v6-binding peptides that block CD44v6 and deliver a pro-apoptotic peptide to tumors to inhibit tumor growth and metastasis in mice” (Theranostics, 2021).
Residues, ends and D or L forms follow the SMILES beside them.

Assays:
MCF7 cells = test: Saturation cell binding assay, MCF7; parameters: species or system human; details: biotin-labeled peptide 0-256 µM, 4 °C, 1 h, CD44v6-low cells
Description: (§1) Supplementary Information
Supplementary Materials and Methods
Saturation binding assays to determine the cellular binding affinities of peptides Cells (5 × 10^3 cells per well in a 96-well plate) were incubated with 1% bovine serum albumin (BSA) for 30 min and with different concentrations of biotin-labeled peptides (0, 2, 4, 8, 16, 32, 64, 128, and 256 µM) at 4 °C for 1 h. After washing, the cells were incubated with horseradish peroxidase-conjugated neutravidin (1:10,000 dilution; ThermoFisher Scientific, Waltham, MA) for 30 min at room temperature. Enzymatic activity was detected using a 3,3ʹ,5,5ʹ-tetramethylbenzidine substrate (ThermoFisher Scientific), and the reaction was stopped using 2 M sulfuric acid. The absorbance at 450 nm was measured in each well using a microplate reader (Tecan, Mannedorf, Switzerland). The KD values were then calculated using GraphPad Prism 6 software (GraphPad Inc., La Jolla, CA). […]
10 µM biotin-labeled CD44v6-binding peptides at 4 °C for 1 h. […]
Scientific) for 30 min at room temperature. […]

[1] = molecular target: T1, recombinant human CD44v6-Fc protein (Homo sapiens, UniProt P16070); test: ELISA of peptide binding to recombinant proteins; details: 10 µM biotin-labeled peptide, 4 °C, 1 h
T1 sequence (P16070 386-428 limits assumed): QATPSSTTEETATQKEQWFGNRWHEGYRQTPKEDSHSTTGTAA
Description: as §1
Supplementary Materials and Methods […]
peroxidase-conjugated neutravidin (1:10,000 dilution; ThermoFisher Scientific, Waltham, MA) for 30 min at room temperature. Enzymatic activity was detected using a 3,3ʹ,5,5ʹ-tetramethylbenzidine substrate (ThermoFisher Scientific), and the reaction was stopped using 2 M […]
sulfuric acid. […]
Enzyme-linked immunosorbent assay (ELISA) of peptide binding to recombinant proteins ELISA plates were coated overnight with 100 μL of recombinant human CD44v6-Fc and CD44-Fc proteins (R&D Systems, Minneapolis, MN) at a concentration of 1 μg/mL in Tris-buffered saline with 0.05% Tween-20. BSA was used as a control. After coating, plates were incubated with 10 µM biotin-labeled CD44v6-binding peptides at 4 °C for 1 h. After washing, the cells were incubated with horseradish peroxidase-conjugated neutravidin (1:10,000 dilution; ThermoFisher Scientific) for 30 min at room temperature. Detection of enzymatic activity and measurement of absorbance was performed as described above. Relative binding was calculated based on the absorbance, in which the absorbance of BSA was set to 1.

c-Met in MDA-MB231 cells = test: HGF-induced c-Met internalization (confocal microscopy); assay type: cell-based, human; details: peptide pre-treatment 10 min, HGF 25 ng/mL 30 or 60 min
Description: To examine the internalization of CD44v6, 1 × 10^5 MDA-MB231 cells were seeded in each well of an 8-well chamber slide and cultured for 24 h. Next, the cells were incubated with a fresh culture medium containing FITC-labeled peptides (10 μM) at 37 °C for 10, 30, and 60 min and then stained with an anti-human CD44v6 mouse monoclonal antibody (clone no. VFF-7; Santa Cruz Biotechnology). The cells were then incubated with an Alexa Fluor 594-labeled goat anti-mouse IgG secondary antibody (Merck). To examine the internalization of c-Met, cells were incubated with recombinant human HGF at 25 ng/mL (R&D Systems, Minneapolis, MN) for 30 or 60 min with or without pre-treatment with peptides (20 µM) for 10 min. After incubation, the cells were stained with an anti-Met rabbit polyclonal antibody (clone no. C-28, 1:100 dilution; Santa Cruz Biotechnology). The cells were then incubated with an Alexa Fluor 594-labeled goat anti-rabbit IgG secondary antibody (Merck). For nuclear staining, the cells were incubated with DAPI and the ProLong antifade reagent before observation under a confocal microscope (Zeiss).

4T1-luc cells = test: 4T1-luc orthotopic spontaneous metastasis model; assay type: in vivo; details: for tumor growth, lung metastasis, survival rate and TUNEL-stained apoptosis, peptide combined with crizotinib 12.5 mg/kg: peptide 14.2 mg/kg i.v. plus crizotinib 12.5 mg/kg oral, versus crizotinib alone 25 mg/kg; for primary tumor growth, lung metastasis and survival, peptide combined with crizotinib 25 mg/kg: peptide 14.2 mg/kg i.v. plus crizotinib 25 mg/kg oral, versus single treatment; for luminescence signals and total photon flux from the whole body: n = 6/group; for number of lung tumor nodules: relative to saline and control peptide; for hematologic parameters and liver and kidney functional marker levels: peptide alone or in combination with crizotinib, compared with control peptide, n = 3/group
Description: 4T1-luc cells (1 × 10^6 cells) were orthotopically inoculated into the mammary fat pads in 6-week-old female BALB/c mice. Panc-1 cells (1 × 10^6 cells) were subcutaneously inoculated into lower right flank in 6-week-old female BALB/c nude mice To monitor 4T1-luc tumor growth, mice were intraperitoneally injected with D-luciferin (150 mg/kg body weight), incubated for 10 min, and subjected to a whole-body bioluminescence imaging using the IVIS imaging system (Perkin Elmer). At two weeks after the inoculation, mice were randomly sorted into groups based on the luminescence intensity (4T1-luc) or tumor size (Panc-1). CD44v6-binding peptides were administered intravenously to 4T1 tumor-bearing mice (n = 6 per group) through the tail vein (14.2 mg/kg body weight, thrice weekly for three weeks) alone or in combination with crizotinib. Crizotinib in 5% DMSO was administered orally (12.5 and 25 mg/kg body weight, twice weekly for three weeks). CD44v6-targeted pro-apoptotic peptides or CD44v6-binding peptides and pro-apoptotic peptide in combination were intravenously administered to 4T1 or Panc-1 tumor-bearing mice (n = 10 per group) through the tail vein (10 mg/kg body weight, thrice weekly for 3 weeks). Primary tumor growth was monitored by measuring tumor volumes using a caliper and total photon flux in the whole body using the IVIS imaging system. The body weights and tumor ulceration were monitored throughout the treatment period. At the end of the treatments, half of the mice were used for the collection of blood, sacrificed, and the primary tumor weights and numbers of metastatic tumor nodules in the isolated lungs were determined. The remaining mice were maintained until death to determine the survival rates. The hematological parameters and liver and kidney function markers in plasma and serum samples were analyzed as described above. The normal ranges of hematological parameters of the BALB/c mouse and BALB/c nude mouse were obtained from Charles River Laboratories website (www.criver.com).

[2] = peptide 14.2 mg/kg i.v. thrice weekly for three weeks

Structure (SMILES) | Kd (MCF7 cells) | binding to recombinant CD44v6-Fc protein coated on plates compared with CD44-Fc and albumin [1] | HGF-induced internalization of c-Met (c-Met in MDA-MB231 cells) | tumor growth, lung metastasis, survival rate and TUNEL-stained apoptosis, peptide combined with crizotinib 12.5 mg/kg (4T1-luc cells) | primary tumor growth, lung metastasis and survival, peptide combined with crizotinib 25 mg/kg (4T1-luc cells) | body weight (4T1-luc cells; [2]) | survival rate (4T1-luc cells; [2]) | volumes of primary tumors (4T1-luc cells; [2]) | weights of isolated primary tumors (4T1-luc cells; [2]) | luminescence signals and total photon flux from the whole body (4T1-luc cells; [2]) | number of lung tumor nodules (4T1-luc cells; [2]) | hematologic parameters and liver and kidney functional marker levels (4T1-luc cells) | monocyte population (4T1-luc cells; [2])
CC(C)C[C@H](NC(=O)[C@H](CCC(N)=O)NC(=O)[C@H](Cc1c[nH]c2ccccc12)NC(=O)[C@H](CCC(=O)O)NC(=O)[C@H](CC(N)=O)NC(=O)[C@@H](N)CS)C(=O)N[C@@H](CCCCN)C(=O)N[C@@H](CO)C(=O)N[C@@H](CS)C(=O)O [NEW] (H-CNEWQLKSC-OH; N-terminus and C-terminus assumed) | 122 ± 115 µM | preferentially bound | inhibited | more efficiently than crizotinib alone | more efficiently than a single treatment | little effect | increased | decreased | decreased | decreased | reduced number | not significantly changed or remained within normal ranges | 
CC[C@H](C)[C@H](NC(=O)[C@@H](NC(=O)[C@H](CC(N)=O)NC(=O)[C@H](CC(C)C)NC(=O)[C@H](CC(N)=O)NC(=O)[C@@H](N)CS)[C@@H](C)O)C(=O)N[C@@H](CC(=O)O)C(=O)N[C@H](C(=O)N[C@@H](CS)C(=O)O)[C@@H](C)O [NLN] (H-CNLNTIDTC-OH; N-terminus and C-terminus assumed) | 300 ± 250 µM | preferentially bound | inhibited | more efficiently than crizotinib alone | more efficiently than a single treatment | little effect | increased | decreased | decreased | decreased | reduced number | not significantly changed or remained within normal ranges | decreased below the normal ranges
